Test results taken from patent US7544666B2, “NAP derivatives” (Industrial Technology Research Institute, priority 2005, dated 2009).

How the values were obtained:
[1] = Pharmacokinetics after single subcutaneous dose in rats; type: in vivo; settings: rat, 1 mg/kg subcutaneous
Description: A single dosage of NAP and the NAP derivative of BMEC-NAP0706 were subcutaneously administered to rats respectively, and blood samples were obtained at different time intervals. The blood samples were subjected to LC-MS/MS analysis to measure the concentration of NAP and the NAP derivative. A time-plasma concentration relationship was established and pharmacokinetic parameters were calculated. The procedures are described below.
Long Evans rats with body weight between 220 to 240 g were obtained from the National Laboratory Animal Center, Taiwan and caged in the laboratory animal housing in the Industrial Technology Research Institute, Taiwan. The Breeding procedure follows the “Guide for the Care and Use of Laboratory Animals” established by the Chinese Society of Laboratory Animal Sciences. The rats were kept on an alternating 12-hour light and 12-hour dark schedule with sufficient feed and water until they reached the body weight between 280 to 300 g.
Each rat was weighed before the pharmacokinetic examination to estimate its own dosage. The tested drug dissolved in PBS was formulated to achieve the amount of one dosage between 0.28 to 0.32 mL. Each rat was subcutaneously administered with 1 mg/kg of the tested drug. 0.3 mL of blood samples were collected from the saphenous vein in medial thigh of the rat before and 0.25-, 0.5-, 0.75-, 1-, 2-, 4-, 24-hour after administration. Whole blood was centrifuged under 3500 rpm for 10 min and supernatant (serum) was moved to a clean 1.5 mL eppendorf and stored at −80° C.
Sample pretreatment was as follows: The frozen serum was thawed in an ice bath. One hundred μL of the serum was moved to a clean 1.5 mL eppendorf and 10 μL of internal standard material was added. The mixture was added with 200 μL ACN and mixed again. The sample was centrifuged under 14000 rpm at 4° C. for 10 min, and the supernatant was moved to the other clean eppendorf and dried in a vacuum system at 60° C. for 30 min. The dried sample was dissolved in 900 μL ddH2O. The sample was added to a solid phase extraction column previously activated with methanol and ddH2O. After the sample passed through, the extraction column was washed with ddH2O alone and then ddH2O containing 5% ACN and 0.1% TFA. The sample was dissolved from the extraction column with ACN containing 0.1% TFA and dried under a vacuum system at 60° C. for 1 hour. The dried sample was redissolved with 100 μL of ddH2O containing 50% ACN. The sample was analyzed with HPLC-MS/MS system.
The sample analysis was as described below. 20 μL of the sample was poured into the HPLC-MS/MS system. The solvent system was applied in gradient partitioning: 90% A (H2O/ACN=98/2, 0.1% F.A.) and 10% B (H2O/ACN=20/80, 0.1% F.A.) at 0-3 min; 10% A and 90% B at 3-6.5 min; 90% A and 10% B again at 6.5-15 min. The flow rate was 0.2 mL/min. The column was ZORBAX C18, 5 μm, 2.1×50 mm (Agilent) and the detector was ABI 4000 Q Trap. Each sample was analyzed for 15 min. The results were compared with the standard calibration curve to estimate the concentration of each sample. All data was statistically analyzed with Excel or WinNonlin.

[2] = system: scopolamine-induced amnesia rats; assay: Morris water maze in scopolamine-induced amnesia rats; type: in vivo, rat; settings: 0.25 mg/kg subcutaneous, 5 min after scopolamine 1 mg/kg i.p.; FIG. 11
Description: Scopolamine-induced amnesia […] were used in combination of Morris water maze, a memory and behavior analysis system, to assess the in vivo effects of the NAP derivative BMEC-NAP0701 and NAP.
Sprague-Dawley male rats with body weight of 220-250 g obtained from the National Laboratory Animal Center, Taiwan, were caged in an air-conditioned housing with a temperature of 23±1° C. and kept on an alternating 12-hour light and 12-hour dark schedule with sufficient feed and water. […]
Morris Water Maze was performed with a water maze device containing a stainless pool with a size of 160 cm in diameter, 50 cm in height, and 15 mm in thickness of the wall and a platform with a size of 11 cm in diameter, and 22 cm in height. […] The swimming time and track were recorded by VEDEOMEX-V video tracing system, video recorder, and monitor (Columbus Instruments) and analyzed by Water Maze Program (Columbus Instruments). […]
Late of the third day: Two to four hours after the third day training, the platform was removed from the pool. The trained rats were separately sent to quadrant I and the swimming track was recorded for 60 sec. The time spent in finding the original platform was also recorded. […]
Early of the fifth day: The platform was placed in the quadrant II and submerged beneath water level about 1 cm. The rats were separately sent to quadrant I and the time spent in finding the platform was recorded. […]

`CC[C@H](C)[C@H](NC(=O)[C@H](CO)NC(=O)[C@@H](NC(=O)[C@@H]1CCCN1C(=O)[C@H](C)NC(=O)[C@@H](N)CC(N)=O)C(C)C)C(=O)N1CCC[C@H]1C(=O)N[C@@H](CCC(N)=O)C(=O)O` [BMEC-NAP, H-NAPVSIPQ-OH, reference compound] showed an AUC ([1]; in vivo, sc) of 55.8 ng·h/mL, a Cmax ([1]; in vivo, sc) of 55.5 ng/mL and a Tmax ([1]; in vivo, sc) of 15 min. For the same compound, the half-life ([1]; in vivo, sc, read-out: T½ (converted)) was 51 min, the TNAP-max [1] was 0.25 h and the “time required to reach the highest concentration” value [1] was 0.25 h. For the same compound, the “memory improving effect (time spent in finding the platform vs scopolamine-induced rats)” value [2] was “memory improving effect in vivo”.
